Test results reported in ChEMBL document CHEMBL1147719, “Two novel aromatic valerenane-type sesquiterpenes from the Chinese green alga Caulerpa taxifolia” (Bioorg Med Chem Lett, 2006).

Target: T1, Tyrosine-protein phosphatase non-receptor type 1 (Homo sapiens, UniProt P18031)
T1 sequence (P18031 whole entry): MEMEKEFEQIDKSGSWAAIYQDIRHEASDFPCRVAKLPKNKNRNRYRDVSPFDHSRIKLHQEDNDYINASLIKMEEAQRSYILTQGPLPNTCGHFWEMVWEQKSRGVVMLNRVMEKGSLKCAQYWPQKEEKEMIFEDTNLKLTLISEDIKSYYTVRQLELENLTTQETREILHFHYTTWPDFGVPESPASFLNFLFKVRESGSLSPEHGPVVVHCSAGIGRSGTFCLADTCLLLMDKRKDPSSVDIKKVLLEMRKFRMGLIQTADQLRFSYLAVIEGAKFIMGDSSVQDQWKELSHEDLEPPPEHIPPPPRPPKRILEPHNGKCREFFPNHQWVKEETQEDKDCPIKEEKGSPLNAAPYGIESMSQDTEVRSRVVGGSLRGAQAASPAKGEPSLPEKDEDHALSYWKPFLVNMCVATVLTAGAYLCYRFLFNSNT
Assay: Inhibition of human PTP1B

- IC50: 3.77 µM
SMILES: COC(=O)/C1=C/c2c([nH]c3ccccc23)/C(C(=O)OC)=C\c2c1[nH]c1ccccc21 [CAULERPIN]
